Reference: ChEMBL document CHEMBL4732135, “Structural and mechanistic insights into the inhibition of amyloid-β aggregation by Aβ fragment derived synthetic peptides” (Eur J Med Chem, 2021)
Calls of active or inactive are those of the source. The rule behind the calls is not given here. Square brackets hold non-standard residues; d marks the D form. Peptide text beside a SMILES is read from it. ξ: configuration not given here. Oic(3aξ,7aξ) = O=C(O)[C@@H]1CC2CCCCC2N1; Phe(4-F) = N[C@@H](Cc1ccc(F)cc1)C(=O)O

Experiments:
[1] = test system: PC-12; assay: Neuroprotective activity against amyloid beta 42-induced toxicity in rat PC-12 cells assessed as cell viability at 0.5 uM measured after 6 hrs by MTT assay (reference value: 73.8%); format: functional; details: read-out: Activity
[2] = test system: Cortical neurone; assay: Cytotoxicity against rat primary cortical neuron assessed as reduction in cell viability at 20 uM measured after 6 hrs by MTT assay; format: cell-based
[3] = biological target: Amyloid-beta precursor protein (Homo sapiens) (UniProt P05067); assay: Disaggregation of preformed amyloid beta (1 to 42) (unknown origin) aggregation at 2 uM by thioflavin-T fluorescence assay; details: time 24-120 hrs, TDE = time-dependent effect
[4] = biological target: Amyloid-beta precursor protein (Homo sapiens) (UniProt P05067); assay: Inhibition of amyloid beta (1 to 42) (unknown origin) assessed as reduction in peptide aggregation at 4 uM measured after 24 hrs by thioflavin-T fluorescence assay relative to control
[5] = biological target: Amyloid-beta precursor protein (Homo sapiens) (UniProt P05067); assay: Disaggregation of preformed amyloid beta (1 to 42) (unknown origin) aggregation at 2 uM measured after 24 hrs by ANS dye based fluorescence assay
[6] = Effective permeability of compound in pH 8 PBS buffer by PAMPA-BBB assay; format: ADME
[7] = biological target: Amyloid-beta precursor protein (Homo sapiens) (UniProt P05067); assay: Binding affinity to amyloid beta (1 to 42) (unknown origin) assessed as amyloid beta (25 to 42)-adduct formation at 10 uM measured after 24 hrs by ESI-HRMS analysis
[8] = biological target: Amyloid-beta precursor protein (Homo sapiens) (UniProt P05067); assay: Inhibition of amyloid beta (1 to 42) (unknown origin) aggregation measured after 24 hrs by tyrosine fluorescence assay
[9] = biological target: Amyloid-beta precursor protein (Homo sapiens) (UniProt P05067); assay: Inhibition of amyloid beta (1 to 42) (unknown origin) assessed as reduction in peptide aggregation at 0.5 to 2 uM measured at 24 hrs interval for […] by thioflavin-T fluorescence assay; details: dose 0.5-2 µM
[10] = biological target: Amyloid-beta precursor protein (Homo sapiens) (UniProt P05067); assay: Inhibition of amyloid beta (1 to 42) (unknown origin) assessed as reduction in peptide aggregation at 0.5 uM measured after 24 hrs by thioflavin-T fluorescence assay relative to control
[11] = biological target: Amyloid-beta precursor protein (Homo sapiens) (UniProt P05067); assay: Disaggregation of preformed amyloid beta (1 to 42) (unknown origin) aggregation at 1 uM measured at 24 hrs interval for 120 hrs by thioflavin-T fluorescence assay relative to control
[12] = test system: Cortical neurone; assay: Neuroprotective activity against amyloid beta 42-induced toxicity in rat primary cortical neurons at 0.1 uM; format: functional, cell-based
[13] = biological target: Amyloid-beta precursor protein (Homo sapiens) (UniProt P05067); assay: Disaggregation of preformed amyloid beta (1 to 42) (unknown origin) aggregation at 2 uM measured at 24 hrs interval for 120 hrs by thioflavin-T fluorescence assay relative to control
[14] = biological target: Amyloid-beta precursor protein (Homo sapiens) (UniProt P05067); assay: Inhibition of amyloid beta (1 to 42) (unknown origin) assessed as reduction in peptide aggregation at 10 uM measured after 24 hrs by thioflavin-T fluorescence assay relative to control
[15] = biological target: Amyloid-beta precursor protein (Homo sapiens) (UniProt P05067); assay: Inhibition of amyloid beta (1 to 42) (unknown origin) assessed as reduction in peptide aggregation at 0.1 uM measured after 24 hrs by thioflavin-T fluorescence assay relative to control
[16] = biological target: Amyloid-beta precursor protein (Homo sapiens) (UniProt P05067); assay: Inhibition of amyloid beta (1 to 42) (unknown origin) aggregation assessed as relative fluorescence unit at 10 uM measured after 24 hrs by thioflavin-T fluorescence assay (reference value: 100%)
[17] = Stability of compound in serum (unknown origin) assessed as peptide cleavage at 5 uM measured after 24 hrs by MS analysis; format: ADME, cell-free
[18] = biological target: Amyloid-beta precursor protein (Homo sapiens) (UniProt P05067); assay: Binding affinity to amyloid beta (1 to 42) (unknown origin) assessed as amyloid beta (2 to 42)-adduct formation at 10 uM measured after 24 hrs by ESI-HRMS analysis
[19] = biological target: Amyloid-beta precursor protein (Homo sapiens) (UniProt P05067); assay: Binding affinity to amyloid beta (1 to 42) (unknown origin) assessed as absence of fibrillar assembly at 10 uM measured after 24 hrs by STEM analysis
[20] = biological target: Amyloid-beta precursor protein (Homo sapiens) (UniProt P05067); assay: Inhibition of amyloid beta (1 to 42) (unknown origin) aggregation assessed as protein with random coil conformation at 10 uM measured after 24 hrs by circular dichroism analysis (reference value: 5%); parameters: scale not given: the % may be the effect or the level left
[21] = biological target: Amyloid-beta precursor protein (Homo sapiens) (UniProt P05067); assay: Inhibition of amyloid beta (1 to 42) (unknown origin) assessed as reduction in peptide aggregation at 2 uM measured after 24 hrs by thioflavin-T fluorescence assay relative to control
[22] = biological target: Amyloid-beta precursor protein (Homo sapiens) (UniProt P05067); assay: Inhibition of amyloid beta (1 to 42) (unknown origin) aggregation at 2 uM measured after 24 hrs by ANS dye based fluorescence assay
[23] = biological target: Amyloid-beta precursor protein (Homo sapiens) (UniProt P05067); assay: Disaggregation of preformed amyloid beta (1 to 42) (unknown origin) aggregation at 0.5 uM measured at 24 hrs interval for 120 hrs by thioflavin-T fluorescence assay relative to control
[24] = biological target: Amyloid-beta precursor protein (Homo sapiens) (UniProt P05067); assay: Inhibition of amyloid beta (1 to 42) (unknown origin) aggregation at 2 uM measured after 24 hrs in presence of giant unilamellar vesicles by ANS dye based fluorescence assay
[25] = test system: PC-12; assay: Neuroprotective activity against amyloid beta 42-induced toxicity in rat PC-12 cells assessed as cell viability at 4 uM measured after 6 hrs by MTT assay (reference value: 74.05%); format: functional; details: read-out: Activity
[26] = test system: PC-12; assay: Cytotoxicity against rat PC-12 cells assessed as reduction in cell viability at 20 uM measured after 6 hrs by MTT assay; format: cell-based; details: pc-12, 6 h
[27] = test system: PC-12; assay: Neuroprotective activity against amyloid beta 42-induced toxicity in rat PC-12 cells assessed as cell viability at 2 uM measured after 6 hrs by MTT assay (reference value: 74.05%); format: functional; details: read-out: Activity
[28] = test system: PC-12; assay: Neuroprotective activity against amyloid beta 42-induced toxicity in rat PC-12 cells assessed as cell viability at 1 uM measured after 6 hrs by MTT assay (reference value: 73.8%); format: functional; details: read-out: Activity
[29] = biological target: Amyloid-beta precursor protein (Homo sapiens) (UniProt P05067); assay: Inhibition of amyloid beta (1 to 42) (unknown origin) aggregation assessed as protein with beta sheet conformation at 10 uM measured after 24 hrs by circular dichroism analysis (reference value: 66.4%); parameters: scale not given: the % may be the effect or the level left
[30] = biological target: Amyloid-beta precursor protein (Homo sapiens) (UniProt P05067); assay: Inhibition of amyloid beta (1 to 42) (unknown origin) aggregation assessed as relative fluorescence unit at 4 uM measured after 24 hrs by thioflavin-T fluorescence assay (reference value: 100%)
[31] = test system: PC-12; assay: Neuroprotective activity against amyloid beta 42-induced toxicity in rat PC-12 cells assessed as cell viability at 10 uM measured after 6 hrs by MTT assay (reference value: 74.05%); format: functional; details: read-out: Activity
[32] = biological target: Amyloid-beta precursor protein (Homo sapiens) (UniProt P05067); assay: Inhibition of amyloid beta (1 to 42) (unknown origin) aggregation assessed as relative fluorescence unit at 2 uM measured after 24 hrs by thioflavin-T fluorescence assay (reference value: 100%)
[33] = test system: PC-12; assay: Neuroprotective activity against amyloid beta 42-induced toxicity in rat PC-12 cells assessed as cell viability at 0.1 uM measured after 6 hrs by MTT assay (reference value: 73.8%); format: functional; details: read-out: Activity
[34] = biological target: Amyloid-beta precursor protein (Homo sapiens) (UniProt P05067); assay: Inhibition of amyloid beta (1 to 42) (unknown origin) assessed as reduction in peptide aggregation at 1 uM measured after 24 hrs by thioflavin-T fluorescence assay relative to control
[35] = biological target: Amyloid-beta precursor protein (Homo sapiens) (UniProt P05067); assay: Binding affinity to amyloid beta (1 to 42) (unknown origin) assessed as absence of fibrillar assembly at 10 uM measured after 24 hrs by HR-TEM analysis
[36] = Stability of compound in serum (unknown origin) at 5 uM measured up to 12 hrs by HPLC analysis; format: ADME, cell-free; details: read-out: Stabilty
[37] = biological target: Amyloid-beta precursor protein (Homo sapiens) (UniProt P05067); assay: Binding affinity to amyloid beta (1 to 42) (unknown origin) assessed as amyloid beta (27 to 42)-adduct formation at 10 uM measured after 24 hrs by ESI-HRMS analysis
[38] = biological target: Amyloid-beta precursor protein (Homo sapiens) (UniProt P05067); assay: Binding affinity to amyloid beta (1 to 42) (unknown origin) at 10 uM measured after 24 hrs by ESI-HRMS analysis

Sequence of Amyloid-beta precursor protein (Homo sapiens) (P05067 whole entry): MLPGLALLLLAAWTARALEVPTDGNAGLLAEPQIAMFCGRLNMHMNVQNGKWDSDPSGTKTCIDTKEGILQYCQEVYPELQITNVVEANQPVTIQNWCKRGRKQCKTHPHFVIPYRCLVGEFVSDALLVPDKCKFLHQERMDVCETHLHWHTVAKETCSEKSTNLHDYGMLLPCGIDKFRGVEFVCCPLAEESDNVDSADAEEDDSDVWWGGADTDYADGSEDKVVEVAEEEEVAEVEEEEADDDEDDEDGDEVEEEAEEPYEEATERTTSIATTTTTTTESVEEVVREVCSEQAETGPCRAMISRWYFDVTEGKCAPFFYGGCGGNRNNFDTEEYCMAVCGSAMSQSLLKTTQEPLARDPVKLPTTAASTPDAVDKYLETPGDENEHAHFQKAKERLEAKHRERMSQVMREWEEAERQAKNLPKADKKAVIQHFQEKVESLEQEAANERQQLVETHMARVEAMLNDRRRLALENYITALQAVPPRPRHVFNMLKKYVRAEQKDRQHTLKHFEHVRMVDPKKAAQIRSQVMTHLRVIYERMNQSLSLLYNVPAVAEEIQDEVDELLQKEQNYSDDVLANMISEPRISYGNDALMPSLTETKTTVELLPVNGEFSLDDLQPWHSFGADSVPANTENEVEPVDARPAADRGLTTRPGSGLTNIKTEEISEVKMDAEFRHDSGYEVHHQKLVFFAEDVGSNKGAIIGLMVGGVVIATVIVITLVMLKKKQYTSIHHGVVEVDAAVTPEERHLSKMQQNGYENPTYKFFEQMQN

## CC[C@H](C)[C@H](NC(=O)[C@@H](NC(=O)[C@@H](N)Cc1ccc(F)cc1)C(C)C)C(=O)N[C@@H](C)C(=O)O (H-[Phe(4-F)]VIA-OH)
[1]
  viability at 0.5 µM: 83.1%
[2]
  Activity: Non-Toxic
[3]
  Activity: Tde
[4]
  inhibition: 97.5%
[5]
  Activity: Active
[6]
  Peff: Permeable
[7]
  Activity: Active
[8]
  inhibition: Active
[9]
  inhibition: Active
[10]
  inhibition: 81%
[11]
  inhibition: 42.5%
[12]
  Activity: Active
[13]
  inhibition: 61%
[14]
  inhibition: 91.7%
[15]
  inhibition: 79.9%
[16]
  RFU: 57.2%
[17]
  Stabilty: Unstable
[18]
  Activity: Active
[19]
  Activity: Active
[20]
  Activity: 97.6%
[21]
  inhibition: 100%
[22]
  inhibition: Active
[23]
  inhibition: 32.1%
[24]
  inhibition: Active
[25]
  viability at 4 µM: 100%
[26]
  Activity: Non-Toxic
[27]
  viability at 2 µM: 100%
[28]
  viability at 1 µM: 97.2%
[29]
  Activity: 13.6%
[30]
  RFU: 54.5%
[31]
  viability at 10 µM: 100%
[32]
  RFU: 53.1%
[33]
  viability at 0.1 µM: 79.3%
[34]
  inhibition: 83.1%
[35]
  Activity: Active
[36]
  remaining at 12 h, 5 µM: 90%

## CC[C@H](C)[C@H](NC(=O)[C@@H]1CC2CCCCC2N1C(=O)[C@@H](N)C(C)C)C(=O)N[C@@H](C)C(=O)O (some centres undefined) (H-V[Oic(3aξ,7aξ)]IA-OH)
[1]
  viability at 0.5 µM: 80.5%
[2]
  Activity: Non-Toxic
[3]
  Activity: Tde
[4]
  inhibition: 100%
[5]
  Activity: Active
[6]
  Peff: Permeable
[8]
  inhibition: Active
[9]
  inhibition: Active
[10]
  inhibition: 68%
[12]
  Activity: Active
[14]
  inhibition: 100%
[15]
  inhibition: 61.2%
[16]
  RFU: 53.2%
[17]
  Stabilty: Unstable
[19]
  Activity: Active
[20]
  Activity: 60%
[37]
  Activity: Active
[21]
  inhibition: 100%
[22]
  inhibition: Active
[24]
  inhibition: Active
[25]
  viability at 4 µM: 100%
[26]
  Activity: Non-Toxic
[27]
  viability at 2 µM: 100%
[28]
  viability at 1 µM: 92.3%
[29]
  Activity: 14.2%
[30]
  RFU: 53.3%
[31]
  viability at 10 µM: 100%
[32]
  RFU: 53%
[33]
  viability at 0.1 µM: 84.9%
[38]
  Activity: Active
[34]
  inhibition: 74.8%
[35]
  Activity: Active
[36]
  remaining at 12 h, 5 µM: 90%
